Laboratory results published in ChEMBL document CHEMBL5154942, “Discovery of Clinical Candidate NTQ1062 as a Potent and Bioavailable Akt Inhibitor for the Treatment of Human Tumors” (J Med Chem, 2022).

Key:
LNCaP [1] = assay: Antitumor activity against human LNCaP cells xenografted in NCG mouse assessed as tumor growth inhibition at 12.5 mg/kg administered once daily for 18 to 21 days relative to control; type: functional; conditions: time 18-21 day, read-out: TGI
[2] = target: Ribosomal protein S6 kinase alpha-4 (Homo sapiens) (UniProt O75676); assay: Inhibition of MSK2 (unknown origin) at 1 uM in presence of ATP at Km concentration by mobility shift assay relative to control
Sequence of Ribosomal protein S6 kinase alpha-4 (Homo sapiens) (O75676 whole entry, looked up): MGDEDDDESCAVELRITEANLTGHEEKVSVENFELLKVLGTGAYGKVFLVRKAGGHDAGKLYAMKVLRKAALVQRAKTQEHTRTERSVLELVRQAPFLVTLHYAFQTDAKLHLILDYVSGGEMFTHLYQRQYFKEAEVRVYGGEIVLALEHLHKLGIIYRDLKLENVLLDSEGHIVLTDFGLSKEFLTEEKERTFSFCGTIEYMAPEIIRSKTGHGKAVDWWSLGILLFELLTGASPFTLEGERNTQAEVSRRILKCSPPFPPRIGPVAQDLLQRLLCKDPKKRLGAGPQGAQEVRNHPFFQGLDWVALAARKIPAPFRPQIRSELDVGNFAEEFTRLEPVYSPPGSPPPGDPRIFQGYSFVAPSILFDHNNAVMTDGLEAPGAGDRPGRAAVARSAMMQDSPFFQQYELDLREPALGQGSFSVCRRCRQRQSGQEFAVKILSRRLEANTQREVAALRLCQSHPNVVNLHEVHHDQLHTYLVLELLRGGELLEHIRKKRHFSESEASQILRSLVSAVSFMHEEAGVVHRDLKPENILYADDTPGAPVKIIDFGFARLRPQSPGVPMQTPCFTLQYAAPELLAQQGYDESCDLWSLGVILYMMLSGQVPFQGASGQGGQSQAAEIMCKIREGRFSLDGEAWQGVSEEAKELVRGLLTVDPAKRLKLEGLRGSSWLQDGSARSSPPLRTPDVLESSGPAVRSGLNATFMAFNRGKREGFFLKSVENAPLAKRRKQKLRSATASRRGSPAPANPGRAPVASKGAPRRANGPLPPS

[3] = Half life in crab-eating monkey at 3 mg/kg, iv measured upto 24 hrs by UPLC-MS/MS analysis; type: ADME, organism-based, Macaca fascicularis; conditions: cynomolgus monkey, in vivo
[4] = AUC (0 to infinity) in crab-eating monkey at 3 mg/kg, iv measured upto 24 hrs by UPLC-MS/MS analysis; type: ADME, organism-based, Macaca fascicularis; set-up: dose 3 mg/kg, time < 24 hrs, route iv; conditions: cynomolgus monkey, in vivo
LNCaP [5] = assay: Induction of apoptosis in human LNCaP cells assessed as late apoptotic cells at […] incubated for 72 hrs by annexin V/PI double staining based flow cytometry method (reference value: 2.75 %); type: functional
[6] = Cmax in Sprague-Dawley rat at 5 mg/kg, iv measured upto 24 hrs by UPLC-MS/MS analysis; type: ADME, organism-based; set-up: dose 5 mg/kg, time < 24 hrs, route iv; conditions: in vivo
[7] = AUC (0 to t) in Sprague-Dawley rat at 10 mg/kg, ig by UPLC-MS/MS analysis; type: ADME, organism-based; set-up: dose 10 mg/kg, route ig; conditions: in vivo, po
[8] = Metabolic stability in Beagle dog liver microsomes assessed as intrinsic clearance at 1 uM measured after 60 mins by LC-MS/MS analysis; type: ADME, Canis lupus familiaris, Microsome; conditions: 1 h
[9] = Metabolic stability in CD-1 mouse liver microsomes assessed as half life at 1 uM measured after 60 mins by LC-MS/MS analysis; type: ADME, Microsome
[10] = AUC (0 to infinity) in crab-eating monkey at 6 mg/kg, ig by UPLC-MS/MS analysis; type: ADME, organism-based, Macaca fascicularis; set-up: time infinity, dose 6 mg/kg, route ig; conditions: cynomolgus monkey, in vivo, po
[11] = AUC (0 to infinity) in overnight fasted ICR mouse at 10 mg/kg, po measured upto 24 hrs by UPLC-MS/MS analysis; type: ADME, organism-based; set-up: dose 10 mg/kg, time < 24 hrs, route po; conditions: in vivo
[12] = Cmax in crab-eating monkey at 3 mg/kg, iv measured upto 24 hrs by UPLC-MS/MS analysis; type: ADME, organism-based, Macaca fascicularis; set-up: dose 3 mg/kg, time < 24 hrs, route iv; conditions: cynomolgus monkey, in vivo
LNCaP [13] = assay: Induction of apoptosis in human LNCaP cells assessed as apoptotic cells at […] incubated for 72 hrs by annexin V/PI double staining based flow cytometry method (reference value: 3.95 %); type: functional; conditions: dose 2.5 µM

Q: Which inhibition in vivo at 12.5 mg/kg (LNCaP [1]) does the source give for `CC(C)NC[C@@H](C(=O)N1CCN(c2ncnc3c2[C@H](C)CC(=O)N3)[C@H]2C[C@H]21)c1ccc(Cl)cc1` here?
A: 84.1%

Q: What about the inhibition [2] of the same compound?
A: 90%

Q: What about the half-life [3] of the same compound?
A: 7.73 h

Q: What about the AUC(0-inf) [4] of the same compound?
A: 1880 ng·h/mL

Q: What about the Activity (LNCaP [5]; dose 0.62 µM) of the same compound?
A: 9.01%

Q: And the Activity (LNCaP [5]; dose 2.5 µM)?
A: 16.43%

Q: And the Cmax [6]?
A: 1690 ng/mL

Q: And the AUC(0-t) [7]?
A: 3880 ng·h/mL

Q: What about the CLH [8] of the same compound?
A: 1.26 mL/h/kg

Q: What about the half-life at 1 µM [9] of the same compound?
A: > 6.45 h

Q: And the AUC(0-inf) [10]?
A: 1680 ng·h/mL

Q: And the AUC(0-inf) [11]?
A: 2170 ng·h/mL

Q: What about the Cmax [12] of the same compound?
A: 702 ng/mL

Q: What about the Activity (LNCaP [13]) of the same compound?
A: 38.97%
